Assay results published in publication PMC5218480 (PLoS ONE, 2017).

System: MV-4-11 cells
Assay: Gene expression microarray analysis (Affymetrix PrimeView) and GSEA
Format: cell-based, human
Design: RFU PODN (11730768_x_at) / Fold change /veh PODN (11730768_x_at) / RFU LINC00158 (11744669_a_at) / Fold change /veh LINC00158 (11744669_a_at) / RFU DUSP10 (11751237_a_at) / Fold change /veh DUSP10 (11751237_a_at) / RFU ID3 (11757404_x_at) / Fold change /veh ID3 (11757404_x_at) / RFU PLEKHG5 (11737974_s_at) / Fold change /veh PLEKHG5 (11737974_s_at) / RFU LRRC4B (11730491_at) / Fold change /veh LRRC4B (11730491_at) / RFU GIMAP4 (11747438_a_at) / Fold change /veh GIMAP4 (11747438_a_at) / RFU KRT8 (11758183_x_at) / Fold change /veh KRT8 (11758183_x_at) / RFU CNN1 (11734310_a_at) / Fold change /veh CNN1 (11734310_a_at) / RFU VPS37D (11726825_at) / Fold change /veh VPS37D (11726825_at) / RFU C10orf10 (11716522_x_at) / Fold change /veh C10orf10 (11716522_x_at) / RFU KIR2DL2 /// KIR2DL4 /// KIR2DL5A /// KIR2DL5B /// KIR2DS1 /// KIR2DS2 /// KIR2DS3 /// KIR2DS4 /// KIR3DL3 /// KIR3DL3 /// KIR3DS1 (11738374_at) / Fold change /veh KIR2DL2 /// KIR2DL4 /// KIR2DL5A /// KIR2DL5B /// KIR2DS1 /// KIR2DS2 /// KIR2DS3 /// KIR2DS4 /// KIR3DL3 /// KIR3DL3 /// KIR3DS1 (11738374_at) / RFU C1QL1 (11718748_at) / Fold change /veh C1QL1 (11718748_at) / RFU TMPRSS4 (11747572_a_at) / Fold change /veh TMPRSS4 (11747572_a_at) / RFU HAMP (11756126_x_at) / Fold change /veh HAMP (11756126_x_at) / RFU RNFT2 (11725882_a_at) / Fold change /veh RNFT2 (11725882_a_at) / RFU NR4A2 (11747474_a_at) / Fold change /veh NR4A2 (11747474_a_at) / RFU ABCC12 (11746883_a_at) / Fold change /veh ABCC12 (11746883_a_at) / RFU TMEM136 (11760407_x_at) / Fold change /veh TMEM136 (11760407_x_at) / RFU CLDN22 /// WWC2 (11732394_at) / Fold change /veh CLDN22 /// WWC2 (11732394_at) / RFU HLA-DPB1 (11760878_x_at) / Fold change /veh HLA-DPB1 (11760878_x_at) / RFU SPINT1 (11716480_a_at) / Fold change /veh SPINT1 (11716480_a_at) / RFU GAP43 (11754022_s_at) / Fold change /veh GAP43 (11754022_s_at) / RFU A4GNT (11735810_at) / Fold change /veh A4GNT (11735810_at) / RFU PRB3 (11715151_x_at) / Fold change /veh PRB3 (11715151_x_at) / RFU TUBB4B (11761932_at) / Fold change /veh TUBB4B (11761932_at) / RFU CAPN14 (11732068_a_at) / Fold change /veh CAPN14 (11732068_a_at) / RFU TMCC2 (11721928_a_at) / Fold change /veh TMCC2 (11721928_a_at) / RFU IRGQ (11745062_a_at) / Fold change /veh IRGQ (11745062_a_at) / RFU FAM174B (11720279_a_at) / Fold change /veh FAM174B (11720279_a_at) / RFU TMPRSS4 (11748680_a_at) / Fold change /veh TMPRSS4 (11748680_a_at) / RFU FAM212B (11763350_a_at) / Fold change /veh FAM212B (11763350_a_at) / RFU PLEKHG5 (11743358_a_at) / Fold change /veh PLEKHG5 (11743358_a_at) / RFU ZSCAN30 (11745921_a_at) / Fold change /veh ZSCAN30 (11745921_a_at) / RFU CMKLR1 (11741424_a_at) / Fold change /veh CMKLR1 (11741424_a_at) / RFU LOC101060620 /// MAPK8IP1 (11723275_at) / Fold change /veh LOC101060620 /// MAPK8IP1 (11723275_at) / RFU SPTSSB (11747773_x_at) / Fold change /veh SPTSSB (11747773_x_at) / RFU PRSS12 (11739890_at) / Fold change /veh PRSS12 (11739890_at) / RFU BIN1 (11741810_x_at) / Fold change /veh BIN1 (11741810_x_at) / RFU WNT11 (11732464_a_at) / Fold change /veh WNT11 (11732464_a_at) / RFU C10orf10 (11716521_a_at) / Fold change /veh C10orf10 (11716521_a_at) / RFU C5orf56 (11738089_at) / Fold change /veh C5orf56 (11738089_at) / RFU CYB561 (11721691_x_at) / Fold change /veh CYB561 (11721691_x_at) / RFU ANKRD19P (11752326_a_at) / Fold change /veh ANKRD19P (11752326_a_at) / RFU OR2T12 /// OR2T33 /// OR2T8 (11738714_s_at) / Fold change /veh OR2T12 /// OR2T33 /// OR2T8 (11738714_s_at) / RFU VCAN (11748164_a_at) / Fold change /veh VCAN (11748164_a_at) / RFU JSRP1 (11732532_at) / Fold change /veh JSRP1 (11732532_at) / RFU KRTAP10-11 (11738290_x_at) / Fold change /veh KRTAP10-11 (11738290_x_at) / RFU MYO3A (11730013_a_at) / Fold change /veh MYO3A (11730013_a_at) / RFU EBF3 (11725865_a_at) / Fold change /veh EBF3 (11725865_a_at) / RFU CAMK2N1 (11719241_x_at) / Fold change /veh CAMK2N1 (11719241_x_at) / RFU C5orf56 (11738088_a_at) / Fold change /veh C5orf56 (11738088_a_at) / RFU OLFML3 (11715873_a_at) / Fold change /veh OLFML3 (11715873_a_at) / RFU LOC100653217 /// NTM (11731650_a_at) / Fold change /veh LOC100653217 /// NTM (11731650_a_at) / RFU MAPK11 (11762145_a_at) / Fold change /veh MAPK11 (11762145_a_at) / RFU FIZ1 (11724087_x_at) / Fold change /veh FIZ1 (11724087_x_at) / RFU OASL (11726364_x_at) / Fold change /veh OASL (11726364_x_at) / RFU SOX15 (11748057_x_at) / Fold change /veh SOX15 (11748057_x_at) / RFU CD79A (11719716_a_at) / Fold change /veh CD79A (11719716_a_at) / RFU HIST1H1D (11736915_at) / Fold change /veh HIST1H1D (11736915_at) / RFU CASKIN2 (11723855_a_at) / Fold change /veh CASKIN2 (11723855_a_at) / RFU LOC730098 (11760151_x_at) / Fold change /veh LOC730098 (11760151_x_at) / RFU OR4N2 (11742367_at) / Fold change /veh OR4N2 (11742367_at) / RFU PRRT2 (11749266_a_at) / Fold change /veh PRRT2 (11749266_a_at) / RFU SNX32 (11753110_a_at) / Fold change /veh SNX32 (11753110_a_at) / RFU CDHR5 (11726645_a_at) / Fold change /veh CDHR5 (11726645_a_at) / RFU RCAN1 (11760418_a_at) / Fold change /veh RCAN1 (11760418_a_at) / RFU FAM167A (11723789_a_at) / Fold change /veh FAM167A (11723789_a_at) / RFU FAM26E (11764081_at) / Fold change /veh FAM26E (11764081_at) / RFU ISYNA1 (11749810_s_at) / Fold change /veh ISYNA1 (11749810_s_at) / RFU ACY1 (11761880_at) / Fold change /veh ACY1 (11761880_at) / RFU 11764098_at / Fold change /veh 11764098_at / RFU SAMD14 (11745864_x_at) / Fold change /veh SAMD14 (11745864_x_at) / RFU NPB (11741838_a_at) / Fold change /veh NPB (11741838_a_at) / RFU TMPRSS6 (11731388_a_at) / Fold change /veh TMPRSS6 (11731388_a_at) / RFU KRTAP10-2 (11738614_at) / Fold change /veh KRTAP10-2 (11738614_at) / RFU ARHGAP8 /// PRR5-ARHGAP8 (11727945_x_at) / Fold change /veh ARHGAP8 /// PRR5-ARHGAP8 (11727945_x_at) / RFU KRTAP5-7 /// NADSYN1 (11734609_at) / Fold change /veh KRTAP5-7 /// NADSYN1 (11734609_at) / RFU RASL12 (11751679_a_at) / Fold change /veh RASL12 (11751679_a_at) / RFU CDKN2B (11736163_a_at) / Fold change /veh CDKN2B (11736163_a_at) / RFU PRF1 (11729649_at) / Fold change /veh PRF1 (11729649_at) / RFU, ZNF638 /// ZNF638-IT1 / Fold change vs veh, ZNF638 /// ZNF638-IT1 / RFU, PANK3 / Fold change vs veh, PANK3 / RFU, SH3YL1 / Fold change vs veh, SH3YL1 / RFU, ZEB2 / Fold change vs veh, ZEB2 / RFU, NRIP1 / Fold change vs veh, NRIP1 / RFU, PTTG1IP / Fold change vs veh, PTTG1IP / RFU, CAPN2 / Fold change vs veh, CAPN2 / RFU, MED14 / Fold change vs veh, MED14 / RFU, SNORA58 / Fold change vs veh, SNORA58 / RFU, C1orf63 / Fold change vs veh, C1orf63 / RFU, LRRFIP1 / Fold change vs veh, LRRFIP1 / RFU, NDUFAF7 / Fold change vs veh, NDUFAF7 / RFU, SLC12A2 / Fold change vs veh, SLC12A2 / RFU, IBTK / Fold change vs veh, IBTK / RFU, ESF1 / Fold change vs veh, ESF1 / Fold change vs veh, TMEM50B / RFU, TAOK1 / Fold change vs veh, TAOK1 / RFU, ACBD3 / Fold change vs veh, ACBD3 / RFU, TMA16 / Fold change vs veh, TMA16 / RFU, RWDD3 / Fold change vs veh, RWDD3 / RFU, BCAT1 / Fold change vs veh, BCAT1 / RFU, EDEM3 / Fold change vs veh, EDEM3 / RFU, TMEM33 / Fold change vs veh, TMEM33 / RFU, WDR75 / Fold change vs veh, WDR75 / RFU, AHCTF1 / Fold change vs veh, AHCTF1 / RFU, TFRC / Fold change vs veh, TFRC / RFU, ZDHHC17 / Fold change vs veh, ZDHHC17 / RFU, NOM1 / Fold change vs veh, NOM1 / RFU, ARL8B / Fold change vs veh, ARL8B / RFU, ZBTB11 / Fold change vs veh, ZBTB11 / RFU, TAMM41 / Fold change vs veh, TAMM41 / RFU, KIAA1704 /// LOC100996395 / Fold change vs veh, KIAA1704 /// LOC100996395 / RFU, ING1 / Fold change vs veh, ING1 / RFU, TRMT61B / Fold change vs veh, TRMT61B / RFU, FUBP3 / Fold change vs veh, FUBP3 / RFU, TP53 / Fold change vs veh, TP53 / RFU, TNKS2 / Fold change vs veh, TNKS2 / RFU, ZFP14 / Fold change vs veh, ZFP14 / RFU, ACTR2 / Fold change vs veh, ACTR2 / RFU, PPP3R1 / Fold change vs veh, PPP3R1 / RFU, PIK3R1 / Fold change vs veh, PIK3R1 / RFU, HNRNPA1 / Fold change vs veh, HNRNPA1 / RFU, RNF170 / Fold change vs veh, RNF170 / RFU, ZNF28 / Fold change vs veh, ZNF28 / RFU, RNGTT / Fold change vs veh, RNGTT / RFU, OGT / Fold change vs veh, OGT / RFU, BRD1 / Fold change vs veh, BRD1 / RFU, MARS / Fold change vs veh, MARS / RFU, ZNF655 / Fold change vs veh, ZNF655 / RFU, FAHD1 / Fold change vs veh, FAHD1 / RFU, BDP1 / Fold change vs veh, BDP1 / RFU, LRRCC1 / Fold change vs veh, LRRCC1 / RFU, ARID1A / Fold change vs veh, ARID1A / RFU, ZNF146 / Fold change vs veh, ZNF146 / RFU, ZNF330 / Fold change vs veh, ZNF330 / RFU, GPN3 / Fold change vs veh, GPN3 / RFU, C9orf123 / Fold change vs veh, C9orf123 / RFU, N4BP2L2 / Fold change vs veh, N4BP2L2 / RFU, ARFIP1 / Fold change vs veh, ARFIP1 / RFU, FAM179B / Fold change vs veh, FAM179B / RFU, BCL10 / Fold change vs veh, BCL10 / RFU, UHRF1BP1L / Fold change vs veh, UHRF1BP1L / RFU, BET1 / Fold change vs veh, BET1 / RFU, CNOT2 / Fold change vs veh, CNOT2 / RFU, ZNF268 / Fold change vs veh, ZNF268 / Fold change vs veh, ZNF507 / RFU, DGCR2 / Fold change vs veh, DGCR2 / RFU, WDSUB1 / Fold change vs veh, WDSUB1 / Fold change vs veh, HSP90B1 /// MIR3652 / RFU, ADSS / Fold change vs veh, ADSS / RFU, GK / Fold change vs veh, GK / RFU, ZNF148 / Fold change vs veh, ZNF148 / RFU, TAF9 / Fold change vs veh, TAF9 / RFU, SLC1A5 / Fold change vs veh, SLC1A5 / RFU, SLMO2 / Fold change vs veh, SLMO2 / RFU, ABCC4 / Fold change vs veh, ABCC4 / RFU, LOC101060439 /// RAP1B / Fold change vs veh, LOC101060439 /// RAP1B / RFU, RFX7 / Fold change vs veh, RFX7 / RFU, GTPBP10 / Fold change vs veh, GTPBP10 / RFU, CNEP1R1 / Fold change vs veh, CNEP1R1 / RFU, BIVM-ERCC5 /// ERCC5 / Fold change vs veh, BIVM-ERCC5 /// ERCC5 / RFU, ILF3 / Fold change vs veh, ILF3 / RFU 11762660_at / Fold change /veh 11762660_at / RFU VCAN (11757783_s_at) / Fold change /veh VCAN (11757783_s_at) / RFU DDX43 (11728927_at) / Fold change /veh DDX43 (11728927_at) / RFU KRT8 (11758188_x_at) / Fold change /veh KRT8 (11758188_x_at) / RFU NKD1 (11759106_at) / Fold change /veh NKD1 (11759106_at) / RFU SRD5A1 (11742802_a_at) / Fold change /veh SRD5A1 (11742802_a_at) / RFU TPSAB1 /// TPSB2 (11721975_s_at) / Fold change /veh TPSAB1 /// TPSB2 (11721975_s_at) / RFU GSTM3 (11746129_a_at) / Fold change /veh GSTM3 (11746129_a_at) / RFU IL23R (11737362_x_at) / Fold change /veh IL23R (11737362_x_at) / RFU TMEM51 (11727254_a_at) / Fold change /veh TMEM51 (11727254_a_at) / RFU PIWIL2 (11732686_x_at) / Fold change /veh PIWIL2 (11732686_x_at) / RFU ORM1 (11744905_x_at) / Fold change /veh ORM1 (11744905_x_at) / RFU CCDC152 (11743942_at) / Fold change /veh CCDC152 (11743942_at) / RFU ECM1 (11717891_a_at) / Fold change /veh ECM1 (11717891_a_at) / RFU IL23R (11748794_a_at) / Fold change /veh IL23R (11748794_a_at) / RFU TNFAIP8L3 (11732012_x_at) / Fold change /veh TNFAIP8L3 (11732012_x_at) / RFU MBOAT4 (11741988_at) / Fold change /veh MBOAT4 (11741988_at) / RFU 11764193_at / Fold change /veh 11764193_at / RFU TMEM53 (11763286_at) / Fold change /veh TMEM53 (11763286_at) / RFU MAGEB2 (11727129_at) / Fold change /veh MAGEB2 (11727129_at) / RFU TMEM200A (11744735_a_at) / Fold change /veh TMEM200A (11744735_a_at) / RFU CCDC152 (11751479_a_at) / Fold change /veh CCDC152 (11751479_a_at) / RFU FAM211A (11726209_a_at) / Fold change /veh FAM211A (11726209_a_at) / RFU RGS16 (11746705_a_at) / Fold change /veh RGS16 (11746705_a_at) / RFU VCAN (11755009_s_at) / Fold change /veh VCAN (11755009_s_at) / RFU RHOB (11743442_s_at) / Fold change /veh RHOB (11743442_s_at) / RFU RGS16 (11720943_a_at) / Fold change /veh RGS16 (11720943_a_at) / RFU RGS16 (11720944_at) / Fold change /veh RGS16 (11720944_at) / RFU, VPS4B / Fold change vs veh, VPS4B / RFU, CREB1 / Fold change vs veh, CREB1 / RFU, DNAJC13 / Fold change vs veh, DNAJC13 / RFU, GNAQ / Fold change vs veh, GNAQ / RFU, CDK5R1 / Fold change vs veh, CDK5R1 / RFU, ZRANB3 / Fold change vs veh, ZRANB3 / RFU, CUL4A / Fold change vs veh, CUL4A / RFU, CCNY / Fold change vs veh, CCNY / RFU, UFL1 / Fold change vs veh, UFL1 / RFU, COG3 / Fold change vs veh, COG3 / RFU, DIAPH2 / Fold change vs veh, DIAPH2 / RFU, SKA2 / Fold change vs veh, SKA2 / RFU, AFF3 / Fold change vs veh, AFF3 / RFU, LMF1 / Fold change vs veh, LMF1 / RFU, IPO11 / Fold change vs veh, IPO11 / RFU, DFFB / Fold change vs veh, DFFB / RFU, FOXP1 / Fold change vs veh, FOXP1 / RFU, CARD8 / Fold change vs veh, CARD8 / RFU, STRN3 / Fold change vs veh, STRN3 / RFU, ADK / Fold change vs veh, ADK / RFU, RASSF2 / Fold change vs veh, RASSF2 / RFU, WIPF1 / Fold change vs veh, WIPF1 / RFU, LARP1B / Fold change vs veh, LARP1B / RFU, RASA1 / Fold change vs veh, RASA1 / RFU, RB1 / Fold change vs veh, RB1 / RFU, PPFIA1 / Fold change vs veh, PPFIA1 / RFU, MAT2A / Fold change vs veh, MAT2A / RFU, CCT5 / Fold change vs veh, CCT5 / RFU, WDR92 / Fold change vs veh, WDR92 / RFU, CUX1 / Fold change vs veh, CUX1 / RFU, TTC7A / Fold change vs veh, TTC7A / RFU, TMEM135 / Fold change vs veh, TMEM135 / RFU, DEPTOR / Fold change vs veh, DEPTOR / RFU, CPM / Fold change vs veh, CPM / RFU, DNAJB6 / Fold change vs veh, DNAJB6 / RFU, CACNA2D3 / Fold change vs veh, CACNA2D3 / RFU, DTX4 / Fold change vs veh, DTX4 / RFU, TFCP2 / Fold change vs veh, TFCP2 / RFU, GMCL1 /// GMCL1P1 / Fold change vs veh, GMCL1 /// GMCL1P1 / RFU, AEBP2 / Fold change vs veh, AEBP2 / RFU, SNHG1 /// SNORD22 /// SNORD25 /// SNORD26 /// SNORD27 /// SNORD28 /// SNORD29 /// SNORD31 / Fold change vs veh, SNHG1 /// SNORD22 /// SNORD25 /// SNORD26 /// SNORD27 /// SNORD28 /// SNORD29 /// SNORD31 / Fold change (Aza/veh), C12orf56 (ProbeSet 11735607_a_at) / Fold change (ACY-1035/veh), C12orf56 (ProbeSet 11735607_a_at) / Fold change (Aza/veh), FGFR1OP (ProbeSet 11751329_s_at) / Fold change (ACY-1035/veh), FGFR1OP (ProbeSet 11751329_s_at) / Fold change (Aza/veh), VPS36 (ProbeSet 11739960_a_at) / Fold change (ACY-1035/veh), VPS36 (ProbeSet 11739960_a_at) / RFU SYPL1 (11715823_x_at) / Fold change /veh SYPL1 (11715823_x_at) / RFU IGFBP7 (11715501_s_at) / Fold change /veh IGFBP7 (11715501_s_at) / RFU REEP3 (11722064_at) / Fold change /veh REEP3 (11722064_at) / RFU IGLL1 (11728026_x_at) / Fold change /veh IGLL1 (11728026_x_at): dose or concentration left out as unconfirmed
Details: ProbeSet 11725787_a_at; LIST B

## Nc1ccc(-c2cccs2)cc1NC(=O)c1ccc2c(c1)cc(C1CC1)n2CCN1CCOCC1 [ACY-1035]
  Fold change vs veh, TMA16: 0.86
